Assay results reported in patent US20170121683A1, “ARYL HYDROCARBON RECEPTOR DISRUPTION AND ENHANCEMENT” (priority 2015, published 2017).

Key:
[1] = system: H9 hESC-derived non-adherent hematopoietic progenitor cells; assay: Hematopoietic colony forming unit (CFU) assay (Example 1); assay type: cell-based, human
Method: FIG. 5A. H9 hESCs were differentiated as spin EB exposed to Stage I mesodermal induction media for 6 days and transferred to hemato-endothelial induction media with either DMSO, 1 μM SR-1, or 10 nM TCDD treatment for an additional 6 days. On day 12 of total differentiation, 50,000 non-adherent cells were obtained in each treatment group and seeded in Methocult H4436. Following 14 days of growth, colony-forming units (CFUs) were quantified and scored based on morphology. Data are represented as number of CFUs per 5×10^4 cells. FIG. 5B. Distribution of CFU morphology for DMSO-, SR-1-, and TCDD-treated H9 hESCs. *p<0.05 as compared to DMSO-treated H9 hESC (Student's t-test) and represent an average of three biological replicates with error bars representing SEM. CFU-GEMM: Colony-Forming Unit Granulocyte/Erythrocyte/Macrophage/Megakaryocyte; CFU-M: Colony-Forming Unit Macrophage; CFU-GM: Colony-Forming Unit-Granulocyte/Macrophage; CFU-E: Colony-Forming Unit Erythroid; BFU-E: Burst-Forming Unit-Erythroid.
Non-adherent, differentiated hematopoietic progenitor cells were harvested following 6 days growth as spin-EBs in Stage I conditions, followed by an additional 6 days growth in Stage II conditions. […] Plates were incubated in a 37° C. in a humidified atmosphere containing 5% CO2 for 14 days and were subsequently scored.

hESCs (H9) = assay: Hemato-endothelial differentiation of hESCs, flow cytometry, fold change vs DMSO (Example 2); assay type: cell-based, human
Method: FIG. 7A. Schema of hESC differentiation into early hemato-endothelial cells as spin-embryoid bodies (spin-EBs). hESCs are made into spin-EBs at Day 0 and conditioned into mesoderm lineages for 6 days using defined cytokines (Stage 1). At Day 6, spin-EBs are transferred into hemato-endothelial culture media (Stage 2) to promote endothelial and hematopoietic cell differentiation. For these studies, cells are treated with either 1 μM SR-1, 10 nM TCDD, or DMSO vehicle control beginning at Day 6+0 with media exchanges and/or harvesting performed at Day 6+3, Day 6+6, and Day 6+9. FIG. 7B. Representative flow cytometry plots of one hESCs differentiation. Both adherent and non-adherent cell fractions are harvested at Day 6+3, Day 6+6, and Day 6+9 and assessed for endothelial cell (CD34^+CD31^+, CD34^+CD144^+) and hematopoietic progenitor cell (CD34^+CD43^+, CD34^+CD45^+) phenotypes. FIG. 7C. Fold change of the total percentage of each hemato-endothelial phenotype for SR-1 and TCDD treated hESCs normalized to matched DMSO treated controls. n=4-6, error bars represent SEM, *p<0.05 as compared to DMSO treated controls by student's t-test. N/A: Not applicable due to absence appreciable of CD34^+CD45^+ populations at Day 6+3 time point.
Single-cell adapted hESCs (H9) were maintained on irradiated mouse embryonic fibroblasts (MEF) in ES growth media, as previously described in Ferrell et al. Stem Cells. 2015; 33(4):1130-41. hESCs were allowed to differentiate as spin-embryoid bodies (EBs) as previously described in Ferrell et al. and Ng et al. Nat. Protoc. 2008; 3(5):768-776 (FIG. 7A). In brief, hESCs were plated at 3,000 cells/100 μL in a round-bottom 96-well plate using serum-free BPEL media supplemented with 20 ng/mL BMP4, 40 ng/mL SCF, and 20 ng/mL VEGF (all R&D Systems, Minneapolis, Minn.). Cells were centrifuged to form embryoid bodies (defined as Day 0) and were incubated for 6 additional days (defined as Day 6) to promote mesoderm induction. To differentiate early endothelial and hematopoietic progenitor cells, Day 6 EBs were transferred to pre-gelatinized 24-well plates (approx. 8-16 EBs/well) with BEL media supplemented with 40 ng/mL SCF, 40 ng/mL VEGF, […] thrombopoietin (all R&D Systems, Minneapolis, Minn.), 30 ng/mL IL-3, and 30 ng/mL IL-6 (both PeproTech, Rocky Hill, N.J.). To modulate AHR activity, EBs were treated at Day 6+0 with DMSO, 1 μM SR-1 (Cellagen Technologies, San Diego, Calif.), or 10 nM 2,3,7,8-tetrachlorodibenzo-p-dioxin (TCDD) (Sigma-Aldrich, St. Louis, Mo.). Media was exchanged every 3 days with small molecule and cytokine supplementation. At indicated time points, non-adherent cell fractions were collected and saved while the remaining adherent fractions were treated with 0.05% trypsin containing 2% chicken serum. Adherent cells were combined with the non-adherent fractions for analysis, unless otherwise stated.
The following additional antibodies were used (all anti-human): LFA-1 (CD11a/CD18)-APC-R700 (BD Biosciences), CD31-APC (eBioscience), CD33-APC (BD Biosciences), CD34-PECy7 (BD Biosciences), CD34-APC (BD Biosciences), CD41a-APC (BD Biosciences), CD43-APC (BD Biosciences), CD45-APC (BD Biosciences), CD56-PECy7 (BD Biosciences), CD56-BV421 (BD Biosciences), CD94-PerCP-Cy5.5 (BD Biosciences), CD117-PECy7 (BD Biosciences), CD117-APC (eBiosciences), CD144-APC (eBioscience). Samples were analyzed on either an LSRFortessa or LSRII flow cytometer (BD Biosciences). Gating was set relative to isotype controls of identical fluorophores. Data from flow cytometry was analyzed using FlowJo software (Treestar, Ashland, Oreg.).

non-human primate iPSCs = conditions: Gori et al. Blood 2012; cited from earlier work

SMILES	increase in total number of colonies relative to DMSO-treated control cells ([1]; non-adherent cells harvested at Day 12, 1 μM SR-1)	proportion of CFU-M and CFU-GM ([1]; non-adherent cells harvested at Day 12, 1 μM SR-1, relative to DMSO)	total percentage of CD34+CD31+ cells, fold vs DMSO controls (hESCs (H9); Day 6+3, 1 μM SR-1)	total percentage of CD34+CD144+ cells, fold vs DMSO controls (hESCs (H9); Day 6+3, 1 μM SR-1)	total percentage of CD34+CD31+ hemato-endothelial cells, fold vs DMSO controls (hESCs (H9); Day 6+6, 1 μM SR-1)	total percentage of CD34+CD43+ hematopoietic progenitor cells, fold vs DMSO controls (hESCs (H9); Day 6+6, 1 μM SR-1)	CD34+CD45+ hematopoietic progenitor cells, fold change normalized to DMSO (hESCs (H9); Day 6+9, 10 nM TCDD)	kinetics or quantity of CD34+ or CD34+CD31+ cells (non-human primate iPSCs)	phenotypic CD34+CD45+ cells (non-human primate iPSCs)	total number of colony-forming units (CFUs) (non-human primate iPSCs)	total percent of CD34+CD31+ cells, fold change normalized to DMSO (hESCs (H9); Day 6+9, 10 nM TCDD)	total percent of CD34+CD43+ cells, fold change normalized to DMSO (hESCs (H9); Day 6+9, 10 nM TCDD)	total percent of CD34+CD144+ cells, fold change normalized to DMSO (hESCs (H9); Day 6+9, 10 nM TCDD)	total percent of CD34− hematopoietic cells (hESCs (H9); Day 6+9, 10 nM TCDD)
CC(C)n1cnc2c(NCCc3ccc(O)cc3)nc(-c3csc4ccccc34)nc21 [SR-1, StemReginin-1]	4 fold	increased proportion	1.58±0.28 fold	1.71±0.22 fold	1.62±0.12 fold	1.36±0.12 fold	1.40±0.11	no differences	increase	did not enhance	–	–	–	–
Clc1cc2c(cc1Cl)Oc1cc(Cl)c(Cl)cc1O2 [TCDD, 2,3,7,8-tetrachlorodibenzo-p-dioxin]	–	–	–	–	–	–	0.44±0.06	–	–	–	0.49±0.06	0.67±0.09	0.33±0.13	increase
